Data as given in patent US20050276832A1, “Topical compositions and uses thereof for treating aquatic animals subjected to disinfection and vaccination” (Veterquimica Ltda., priority 2004, published 2005).

Test system: Saprolengia sp.
Assay: Antifungal bath treatment of Atlantic salmon infected by Saprolengia sp.
Format: in vivo
Details: 1 h baths on Day 1 and Day 7
Description: Five groups were formed, made up of 30 fish each of the Atlantic salmon species, 40-50 grams, showing clear signs of infection by the fungus Saprolengia sp., confirmed by laboratory tests. One of the groups was preserved as control without treatment, while the four remaining groups were subjected to experimental antifingal treatments. In this way, the groups were set up as follows: • GROUP 1: Without antifungal treatment • GROUP 2: Treated with the antifungal product bronopol, according to recommended dose of 20 ppm • GROUP 3: Treated with the Formulation A, in a dose of 28 ml/70 liters of water • GROUP 4: Treated with the Formulation B, in a dose of 28 ml/70 liters of water • GROUP 5: Treated with the Formulation C, in a dose of 28 ml/70 liters of water
The treatments consisted of the following: on Day 1, the fish were submerged for one hour in a bath with 70 liters of water to which the corresponding formulation had been added. Afterwards, they were transferred to breeding tanks that only contained water and with a standard feeding regime, all under the customary aquarium control that includes controlling the temperature (16-17 degrees C.), dissolved oxygen levels not lower than 7 ppm, and control of nitrites and ammonium. On Day 7, the fish were subjected to a second bath, similar to that of Day 1, to continue their development until 14 days of breeding had been completed, keeping a record of the fish killed due to the effect of the Saprolengia fungus. On Day 15, the fish that survived were harvested and the level of infection by Saprolengia was determined for each fish.
The infection level was classified according to the following scale: • INFECTION GRADE 0: healthy fish, without fungus on the skin • INFECTION GRADE 1: fish having only fungal spots on the skin. • INFECTION GRADE 2: fish with short fungal hypha • INFECTION GRADE 3: fish having necrosis of the tissues • INFECTION GRADE 4: fish with cottony hypha • INFECTION GRADE 5: fish dead due to fungal infection (occurring during the 14 days of breeding) Results

## O=[N+]([O-])C(Br)(CO)CO [bromopol, bromo-2-nitropropane-1.3-diol]
30 fish per group, dead due to fungal infection during 14 days of breeding
  fish with grade 5 (death): 50%
Infection level on Day 15, grade 1 fungal spots, grade 2 short fungal hypha
  fish with grade 1-2: 40%
Infection level on Day 15, without fungus on the skin
  fish with grade 0 (healthy): 10%
